Structures can show the parent of a compound that is named as a salt. Where two headings read alike, the source gives them in different places. Values belong to the compound of their own block, whether it stands above or below them.
Experiments:
[1] = Qualitative solubility of free base in 50 solvents; type: physicochemical; details: for Qualitative solubility in solvents: organic solvents, 50 solvents studied
Excerpt: The solubility of compound of Formula (1) was first qualitatively studied in 50 solvents. In all SAS experiments, the amorphous free base of compound of formula (1) was obtained after evaporation of the experiments.

[2] = pKa estimate; type: physicochemical; details: free base
[3] = Hydroscopicity (water sorption at 90% RH); type: physicochemical
[4] = Polymorphism risk assessment; details: 2HCl salt physicochemical summary
Procedure: Decomposition/melting range temperature and presence of solvate molecules are estimated from thermal analyses. The polymorphism risk was assessed base on the number of identified forms during this work and reproducibility of the salt screen target patterns.

[5] = Solubility of 2HCl salt in solvents; type: physicochemical
Procedure: A summary of the physicochemical characteristics of 2HCl salt of Compound of Formula (1) is provided below.
Solubility: very soluble in water ([…]0.2 mg/μL), freely soluble in ethanol (0.1-0.2 mg/μL), sparingly soluble in 1-propanol and acetonitrile (0.01-0.03 mg/μL).

[6] = pH of solution in purified water; type: physicochemical; details: 5 mg/mL solution in purified water
Procedure: pH: 2 to 3 (5 mg/mL solution in purified water).

[7] = Stability study, samples stored at 40° C./75% RH; type: physicochemical

Qualitative solubility in solvents [1]: very soluble or soluble in many solvents | Behaviour of water as solvent ([1]; water): antisolvent | pKa ([2]; read-out: pKa 1 (estimate)): 7.54 | pKa ([2]; read-out: pKa 2 (estimate)): 4.05
SMILES: Cc1ccccc1-c1cc(N2CCN(C)CC2)ncc1C(=O)N(C)Cc1cc(C(F)(F)F)cc(C(F)(F)F)c1 [Compound of Formula (1), N-{[3,5-Bis(trifluoromethyl)phenyl]methyl}-N-methyl-4-(2-methylphenyl)-6-(4-methyl-1-piperazinyl)-3-pyridinecarboxamide]
Qualitative solubility in solvents ([1]; listed as free base): very soluble or soluble in almost all solvents

Hydroscopicity (Water sorption at 90% RH) [3]: 3.2% | Polymorphism [4]: Not detectable | Solubility in 1-propanol ([5]; 1-propanol, sparingly soluble): 10000 to 30000 µg/mL | Solubility in acetonitrile ([5]; acetonitrile, sparingly soluble): 10000 to 30000 µg/mL | Solubility in ethanol ([5]; ethanol, freely soluble): 100000 to 200000 µg/mL | pH [6]: 2 to 3 | Appearance (white to yellow powder) ([7]; 0 months): Complies | Assay (% "as is") ([7]; 0 months): 95.0% | Assay (% anhydrous) ([7]; 0 months): 100.0% | Related Substances: Any other unknown ([7]; 0 months): RRT 0.89: 0.007% | Related Substances: Intermediate 3 ([7]; 0 months): Int 3: 0.69% | Related Substances: RRT - 0.89 ([7]; 0 months): RRT 0.85: 0.34% | Related Substances: RRT - 1.27 ([7]; 0 months): RRT 1.27: 0.27% | Related Substances: Total Impurities ([7]; 0 months): 1.37% | Water Content ([7]; 0 months): 5.0% | pH ([7]; 0 months): 2.31 | Appearance (white to yellow powder) ([7]; 1 month): Complies | Assay (% "as is") ([7]; 1 month): 94.8% | Assay (% anhydrous) ([7]; 1 month): 99.8% | Related Substances: Any other unknown ([7]; 1 month): RRT 0.90: 0.07% | Related Substances: Intermediate 3 ([7]; 1 month): Int 3: 0.71% | Related Substances: RRT - 0.89 ([7]; 1 month): RRT 0.89: 0.36% | Related Substances: RRT - 1.27 ([7]; 1 month): RRT 1.28: 0.27% | Related Substances: Total Impurities ([7]; 1 month): 1.41% | Water Content ([7]; 1 month): 4.99% | pH ([7]; 1 month): 2.39 | Appearance (white to yellow powder) ([7]; 3 months): Complies | Assay (% "as is") ([7]; 3 months): 94.5% | Assay (% anhydrous) ([7]; 3 months): 100.1% | Related Substances: Any other unknown ([7]; 3 months): RRT 0.91: 0.05% | Related Substances: Intermediate 3 ([7]; 3 months): Int 3: 0.71% | Related Substances: RRT - 0.89 ([7]; 3 months): RRT 0.90: 0.36% | Related Substances: RRT - 1.27 ([7]; 3 months): RRT 1.27: 0.26 | Related Substances: Total Impurities ([7]; 3 months): 1.38% | Water Content ([7]; 3 months): 5.58% | pH ([7]; 3 months): 2.33 | Appearance (white to yellow powder) ([7]; 6 months): Complies | Assay (% "as is") ([7]; 6 months): 94.6% | Assay (% anhydrous) ([7]; 6 months): 99.7% | Related Substances: Any other unknown ([7]; 6 months): RRT 0.91: 0.06% | Related Substances: Intermediate 3 ([7]; 6 months): Int 3: 0.71% | Related Substances: RRT - 0.89 ([7]; 6 months): RRT 0.90: 0.35% | Related Substances: RRT - 1.27 ([7]; 6 months): RRT 1.27: 0.27% | Related Substances: Total Impurities ([7]; 6 months): 1.39% | Water Content ([7]; 6 months): 5.17% | pH ([7]; 6 months): 2.47 | Appearance (white to yellow powder) ([7]; Initial Release): Complies | Assay (% "as is") ([7]; Initial Release): 98.3% | Assay (% anhydrous) ([7]; Initial Release): 99.3% | Related Substances: Intermediate 3 ([7]; Initial Release): Int 3: 0.71% | Related Substances: RRT - 0.89 ([7]; Initial Release): RRT 0.87: 0.35% | Related Substances: RRT - 1.27 ([7]; Initial Release): RRT 1.27: 0.28% | Related Substances: Total Impurities ([7]; Initial Release): 1.34% | Water Content ([7]; Initial Release): 1.0% | pH ([7]; Initial Release): 2.31
SMILES: Cc1ccccc1-c1cc(N2CCN(C)CC2)ncc1C(=O)N(C)Cc1cc(C(F)(F)F)cc(C(F)(F)F)c1 [Compound of formula (1) 2HCl salt]

From patent publication US12351557B2, “Chemical compound manufacture, new salt form, and therapeutic uses thereof” (Eustralis Pharmaceuticals Limited (Trading As Pressura …, priority 2018, dated 2025)
